Laboratory results published in patent publication US20220281848A1, “PYRAZOLE-SUBSTITUTED PYRROLIDINONES AS HERBICIDES” (FMC Corporation, priority 2019, published 2022).

Test system: plants
Assay: Test D pre-emergence, other plants of Tables D1 and D3
Type: in vivo
Conditions: 20 DAA; for damage to plant (100=total damage to plant; 0=no damage to plant), BIDPI / damage to plant (100=total damage to plant; 0=no damage to plant), BRAPL / damage to plant (100=total damage to plant; 0=no damage to plant), CYPES / damage to plant (100=total damage to plant; 0=no damage to plant), EPHHL / damage to plant (100=total damage to plant; 0=no damage to plant), GLXMA / damage to plant (100=total damage to plant; 0=no damage to plant), IPOHE / damage to plant (100=total damage to plant; 0=no damage to plant), SORVU: preemergent; for CHEAL damage rating / GALAP damage rating / KCHSC damage rating / LOLPE damage rating / POAAN damage rating / STEME damage rating / VERPE damage rating: pre-emergence, 100=total damage, 0=no damage
Description: A formulation containing 50 g/L of the test chemical was prepared by dissolving the active ingredient in a mixture of organic solvents and emulsifier, details of which are provided in the table. This formulation was then mixed with a small, variable amount of acetone to aid dissolution, before addition of a 0.2% v/v aqueous solution of an adjuvant, as the aqueous diluent, to form an aqueous spray solution which contains a predetermined concentration of the active ingredient.
This aqueous spray solution was then sprayed onto plants including maize and wheat that had been seed treated with a herbicide safener, after one day's cultivation (for pre-emergence) or after about 12 days' cultivation (for post-emergence). The plants were grown from seeds sown in standard soil, placed in a glasshouse under controlled conditions (at 24/18° C. or 20/16° C., day/night; 16 h light; 65% humidity). After spray application the plants were then grown in a glasshouse under the same conditions and watered twice daily. After 15 d for post-emergence and 20 DAA for pre-emergence the test was evaluated (100=total damage to plant; 0=no damage to plant).

CN1CC(c2cc(C(F)(F)F)n(C)n2)C(C(=O)Nc2ccc(F)cc2C(C)(F)F)C1=O (racemic) [Compound 26]
80: damage to plant (100=total damage to plant; 0=no damage to plant), BRAPL (rate 60) | damage to plant (100=total damage to plant; 0=no damage to plant), BRAPL (rate 130) | damage to plant (100=total damage to plant; 0=no damage to plant), BRAPL (rate 250) | damage to plant (100=total damage to plant; 0=no damage to plant), BRAPL (rate 500)
60: POAAN damage rating (Rates 250)
100: POAAN damage rating (Rates 500)
0: damage to plant (100=total damage to plant; 0=no damage to plant), BIDPI (rate 15) | damage to plant (100=total damage to plant; 0=no damage to plant), BIDPI (rate 30) | damage to plant (100=total damage to plant; 0=no damage to plant), BIDPI (rate 60) | damage to plant (100=total damage to plant; 0=no damage to plant), BIDPI (rate 130) | damage to plant (100=total damage to plant; 0=no damage to plant), BIDPI (rate 250) | damage to plant (100=total damage to plant; 0=no damage to plant), BIDPI (rate 500) | damage to plant (100=total damage to plant; 0=no damage to plant), BRAPL (rate 15) | CHEAL damage rating (Rates 15) | CHEAL damage rating (Rates 30) | CHEAL damage rating (Rates 60) | CHEAL damage rating (Rates 130) | damage to plant (100=total damage to plant; 0=no damage to plant), CYPES (rate 15) | damage to plant (100=total damage to plant; 0=no damage to plant), CYPES (rate 30) | damage to plant (100=total damage to plant; 0=no damage to plant), CYPES (rate 60) | damage to plant (100=total damage to plant; 0=no damage to plant), CYPES (rate 130) | damage to plant (100=total damage to plant; 0=no damage to plant), CYPES (rate 250) | damage to plant (100=total damage to plant; 0=no damage to plant), EPHHL (rate 15) | damage to plant (100=total damage to plant; 0=no damage to plant), EPHHL (rate 30) | damage to plant (100=total damage to plant; 0=no damage to plant), EPHHL (rate 60) | damage to plant (100=total damage to plant; 0=no damage to plant), EPHHL (rate 130) | damage to plant (100=total damage to plant; 0=no damage to plant), EPHHL (rate 250) | damage to plant (100=total damage to plant; 0=no damage to plant), EPHHL (rate 500) | GALAP damage rating (Rates 15) | GALAP damage rating (Rates 30) | GALAP damage rating (Rates 60) | GALAP damage rating (Rates 130) | GALAP damage rating (Rates 250) | damage to plant (100=total damage to plant; 0=no damage to plant), GLXMA (rate 15) | damage to plant (100=total damage to plant; 0=no damage to plant), GLXMA (rate 30) | damage to plant (100=total damage to plant; 0=no damage to plant), GLXMA (rate 60) | damage to plant (100=total damage to plant; 0=no damage to plant), GLXMA (rate 130) | damage to plant (100=total damage to plant; 0=no damage to plant), GLXMA (rate 250) | damage to plant (100=total damage to plant; 0=no damage to plant), GLXMA (rate 500) | damage to plant (100=total damage to plant; 0=no damage to plant), IPOHE (rate 15) | damage to plant (100=total damage to plant; 0=no damage to plant), IPOHE (rate 30) | damage to plant (100=total damage to plant; 0=no damage to plant), IPOHE (rate 60) | damage to plant (100=total damage to plant; 0=no damage to plant), IPOHE (rate 130) | damage to plant (100=total damage to plant; 0=no damage to plant), IPOHE (rate 250) | damage to plant (100=total damage to plant; 0=no damage to plant), IPOHE (rate 500) | KCHSC damage rating (Rates 15) | KCHSC damage rating (Rates 30) | KCHSC damage rating (Rates 60) | KCHSC damage rating (Rates 130) | KCHSC damage rating (Rates 250) | KCHSC damage rating (Rates 500) | LOLPE damage rating (Rates 15) | LOLPE damage rating (Rates 30) | LOLPE damage rating (Rates 60) | POAAN damage rating (Rates 15) | POAAN damage rating (Rates 30) | POAAN damage rating (Rates 60) | damage to plant (100=total damage to plant; 0=no damage to plant), SORVU (rate 15) | damage to plant (100=total damage to plant; 0=no damage to plant), SORVU (rate 30) | damage to plant (100=total damage to plant; 0=no damage to plant), SORVU (rate 60) | damage to plant (100=total damage to plant; 0=no damage to plant), SORVU (rate 130) | damage to plant (100=total damage to plant; 0=no damage to plant), SORVU (rate 250) | damage to plant (100=total damage to plant; 0=no damage to plant), SORVU (rate 500) | STEME damage rating (Rates 15) | STEME damage rating (Rates 30) | STEME damage rating (Rates 60) | VERPE damage rating (Rates 15) | VERPE damage rating (Rates 30) | VERPE damage rating (Rates 60) | VERPE damage rating (Rates 130)
90: LOLPE damage rating (Rates 250) | LOLPE damage rating (Rates 500)
30: LOLPE damage rating (Rates 130) | POAAN damage rating (Rates 130)
10: CHEAL damage rating (Rates 250) | CHEAL damage rating (Rates 500) | damage to plant (100=total damage to plant; 0=no damage to plant), CYPES (rate 500) | STEME damage rating (Rates 130) | VERPE damage rating (Rates 250)
70: damage to plant (100=total damage to plant; 0=no damage to plant), BRAPL (rate 30) | STEME damage rating (Rates 500)
40: STEME damage rating (Rates 250)
20: GALAP damage rating (Rates 500)
